Here are results for 37 substances from patent publication US11214803B2, “Modulators of YAP1 expression” (Ionis Pharmaceuticals, Inc., priority 2019, dated 2022).

Strand notation (5' to 3'): a small letter for the sugar, then the base; units joined by * are phosphorothioate-linked, units joined directly phosphodiester-linked; [ ] holds rarer units or linkages, { } end groups; capitals alone tell only the bases. k = constrained ethyl (cEt); [5mC] = 5-methylcytosine; d = 2'-deoxy (DNA)

The first data set deals with Yap1 mRNA. In words: Antisense inhibition of human Yap1 in A-431 cells by cEt gapmers, single dose (Example 2, RTS4814). In kind it is cell-based. Particulars: A-431 cells, 5,000 cells per well, free uptake, 2,000 nM modified oligonucleotide, approx. 48 hours, RTS4814, normalized to RIBOGREEN; Table 4; asterisk (*) = targets amplicon region of primer probe set. The method in brief:
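Single-dose knockdown screen of 3-10-3 cEt phosphorothioate gapmers at 2,000 nM added by free uptake to A-431 cells. After roughly 48 h, RNA was isolated and Yap1 transcript measured by RT-qPCR, with results given as % UTC.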
For the substance “716469 (kG*kT*kT*dT*dG*d[5mC]*dT*d[5mC]*d[5mC]*dT*dT*dT*d[5mC]*k[5mC]*kA*kA; antisense) [Compound 716469]”, the “YAP1 (% UTC)” value is given as 25 % UTC.
On the same count and under the same terms, the figure for “716472 (kG*kT*k[5mC]*dA*dT*dG*d[5mC]*dA*d[5mC]*dA*dT*dT*dA*kT*kG*kA; antisense) [Compound 716472]” is 78 % UTC; for “716475 (k[5mC]*kT*kT*d[5mC]*d[5mC]*dA*dA*dA*dA*d[5mC]*dT*dA*dA*kG*kG*k[5mC]; antisense) [Compound 716475]” it is 63 % UTC; for “716478 (kT*kA*kT*dT*dT*dT*dA*dA*dT*d[5mC]*dT*dA*dG*kT*k[5mC]*kG; antisense) [Compound 716478]” it is 46 % UTC.
Turning to “716481 (kT*k[5mC]*kA*dG*d[5mC]*dA*dT*dA*dG*dA*dA*dG*dT*kA*kG*kG; antisense) [Compound 716481]”, the “YAP1 (% UTC)” value is reported as 23 % UTC.
On the same count and under the same terms, the figure for “716484 (k[5mC]*kA*k[5mC]*dT*dT*dT*dT*d[5mC]*d[5mC]*dA*dG*d[5mC]*dT*kA*kA*k[5mC]; antisense) [Compound 716484]” is 35 % UTC.
Still for that read-out and setting: the figure for “716487 (kA*k[5mC]*kA*d[5mC]*dA*dT*dA*d[5mC]*dT*d[5mC]*dT*dA*dG*kT*kT*kA; antisense) [Compound 716487]” is 64 % UTC; for “716490 (kA*k[5mC]*kA*dA*d[5mC]*d[5mC]*dA*dA*d[5mC]*dT*dA*dT*dT*kA*k[5mC]*kT; antisense) [Compound 716490]” it is 63 % UTC.
The same measure, in the same setting: under “716493 (kA*k[5mC]*kA*dT*dT*dG*dA*dA*dA*dG*dA*d[5mC]*d[5mC]*k[5mC]*kT*kT; antisense) [Compound 716493]” stands 30 % UTC; under “716496 (kG*kA*kA*dG*dA*dG*dA*dT*dT*dT*dT*dA*dT*kG*k[5mC]*k[5mC]; antisense) [Compound 716496]”, 19 % UTC.
As to “716499 (kT*kT*kT*dT*dG*d[5mC]*d[5mC]*d[5mC]*dT*d[5mC]*d[5mC]*dT*d[5mC]*k[5mC]*kA*kA; antisense) [Compound 716499]”, the “YAP1 (% UTC)” value is recorded as 102 % UTC.
The same measure, in the same setting: the figure for “716502 (k[5mC]*kA*k[5mC]*dA*dG*dT*dG*dA*dT*dT*dG*d[5mC]*dA*kT*kT*kT; antisense) [Compound 716502]” is 11 % UTC.

Staying with this data set, now noted: Table 5; A-431 cells, 5,000 cells per well, free uptake, 2,000 nM modified oligonucleotide, approx. 48 hours; RTS4814; normalized to RIBOGREEN; Yap1 mRNA relative to untreated control cells.
For “716467 (k[5mC]*k[5mC]*kG*dT*dA*dT*dG*d[5mC]*d[5mC]*d[5mC]*dA*dG*dA*kG*kG*kG; antisense) [Compound 716467]”, the “YAP1 (% UTC)” value is listed as 99 % UTC.
“716470 (kA*kA*kT*d[5mC]*dG*dA*dG*dA*d[5mC]*dT*dT*dA*dA*kA*kA*kA; antisense) [Compound 716470]”: the “YAP1 (% UTC)” value was 104 % UTC.
The same measure, in the same setting: the figure for “716473 (k[5mC]*kT*kA*dT*dA*dA*dA*dG*d[5mC]*dT*dT*dA*dT*kT*kT*k[5mC]; antisense) [Compound 716473]” is 104 % UTC; for “716476 (kG*kA*kA*d[5mC]*dT*dA*d[5mC]*dA*dA*dA*d[5mC]*dT*dA*kG*kA*kA; antisense) [Compound 716476]” it is 91 % UTC; for “716479 (kG*kA*kA*d[5mC]*dA*dA*dT*d[5mC]*dT*dT*dG*dA*dA*kG*kG*k[5mC]; antisense) [Compound 716479]” it is 32 % UTC.
On the same count and under the same terms, the figure for “716482 (k[5mC]*kT*kA*dT*d[5mC]*d[5mC]*dA*dG*dG*dG*dT*d[5mC]*dA*kA*kT*kT; antisense) [Compound 716482]” is 83 % UTC; for “716485 (kA*k[5mC]*kT*dA*d[5mC]*d[5mC]*dA*dA*dT*dA*dT*dA*d[5mC]*kA*kT*kT; antisense) [Compound 716485]” it is 84 % UTC; for “716488 (k[5mC]*kA*kT*dT*dA*dT*dT*dA*d[5mC]*dT*d[5mC]*d[5mC]*dT*kG*kT*kA; antisense) [Compound 716488]” it is 67 % UTC.
For “716491 (k[5mC]*kT*kG*dG*dT*dG*d[5mC]*d[5mC]*dA*d[5mC]*dT*dT*dT*kA*kA*kT; antisense) [Compound 716491]”, the “YAP1 (% UTC)” value was 54 % UTC.
Regarding “716494 (kA*kA*kG*dG*dG*d[5mC]*dT*dT*dA*dT*dT*d[5mC]*dT*kA*kG*kA; antisense) [Compound 716494]”, the “YAP1 (% UTC)” value is reported as 112 % UTC.
Same read-out and setting: under “716497 (kA*kG*k[5mC]*dA*dG*d[5mC]*dT*dT*dT*dT*dG*d[5mC]*d[5mC]*kA*kG*kG; antisense) [Compound 716497]” stands 65 % UTC; under “716500 (kA*kA*k[5mC]*dT*dT*d[5mC]*dT*dT*dA*d[5mC]*dT*dT*d[5mC]*k[5mC]*kA*kA; antisense) [Compound 716500]”, 18 % UTC; under “716503 (kT*kT*kA*dT*dT*dA*dT*dG*dA*dG*dT*dG*dA*kT*k[5mC]*kA; antisense) [Compound 716503]”, 33 % UTC.

Staying with this data set, now noted: Table 6; A-431 cells, 5,000 cells per well, free uptake, 2,000 nM modified oligonucleotide, approx. 48 hours; RTS4814; normalized to RIBOGREEN; Yap1 mRNA relative to untreated control cells.
Consider “716468 (kT*k[5mC]*kA*dT*d[5mC]*dA*dG*dA*dT*dA*dA*dT*dA*kT*k[5mC]*kT; antisense) [Compound 716468]”, for which the “YAP1 (% UTC)” value was determined as 118 % UTC.
Same read-out and setting: the figure for “716471 (k[5mC]*k[5mC]*kT*dA*d[5mC]*dT*d[5mC]*dA*d[5mC]*dT*dG*dA*dA*kT*kT*k[5mC]; antisense) [Compound 716471]” is 48 % UTC; for “716474 (kT*kA*kA*dA*dT*dG*dA*dA*dG*dG*dT*dA*dA*kA*k[5mC]*k[5mC]; antisense) [Compound 716474]” it is 120 % UTC.
Same read-out and setting: the figure for “716477 (kG*kT*kG*dT*dT*d[5mC]*dA*dT*dT*dA*d[5mC]*dA*dA*kA*kT*kG; antisense) [Compound 716477]” is 42 % UTC; for “716480 (kG*k[5mC]*kA*dA*dG*dT*d[5mC]*dT*dT*dG*dT*dA*dA*kG*kT*kA; antisense) [Compound 716480]” it is 18 % UTC; for “716483 (k[5mC]*kA*kA*dA*dA*d[5mC]*d[5mC]*dT*dT*dA*dT*dA*dG*kT*kA*kT; antisense) [Compound 716483]” it is 159 % UTC.
Still for that read-out and setting: under “716486 (kA*kT*k[5mC]*dA*dT*dG*dA*dT*dT*dA*dT*d[5mC]*dT*k[5mC]*kT*kA; antisense) [Compound 716486]” stands 68 % UTC; under “716489 (kA*kG*kT*dT*dA*dA*dT*dT*d[5mC]*dA*dT*dG*d[5mC]*kT*k[5mC]*kG; antisense) [Compound 716489]”, 23 % UTC; under “716492 (kA*kA*kA*d[5mC]*dA*d[5mC]*dA*dG*dA*dG*dG*dT*dG*k[5mC]*kT*kA; antisense) [Compound 716492]”, 72 % UTC.
Consider “716495 (kG*kT*kT*dA*dT*dG*dA*dA*d[5mC]*d[5mC]*d[5mC]*dT*dT*kG*kA*kA; antisense) [Compound 716495]”, for which the “YAP1 (% UTC)” value was 58 % UTC.
Still for that read-out and setting: under “716498 (kG*kA*kA*dG*dG*dG*d[5mC]*d[5mC]*dA*dA*dA*dA*dT*kA*k[5mC]*kT; antisense) [Compound 716498]” stands 92 % UTC.
Still for that read-out and setting: the figure for “716501 (kG*k[5mC]*kA*d[5mC]*dT*dG*dA*dA*dA*dG*dT*dA*d[5mC]*kT*kT*kA; antisense) [Compound 716501]” is 32 % UTC.
